Reference: ChEMBL document CHEMBL4673222, “Discovery of a Bioactive Inhibitor with a New Scaffold for Cystathionine γ-Lyase” (J Med Chem, 2019)
Each block holds one molecule with its values, some of them ahead of it. Activity calls are given as the source filed them. The calls are words filed in the database; no cut-off is given here.

How the values were obtained:
[1] = biological target: T1, Cystathionine gamma-lyase (Homo sapiens, UniProt P32929); assay: Inhibition of human CSE using L-Cys as the substrate by tandem well based HTS assay
T1 sequence (P32929 whole entry): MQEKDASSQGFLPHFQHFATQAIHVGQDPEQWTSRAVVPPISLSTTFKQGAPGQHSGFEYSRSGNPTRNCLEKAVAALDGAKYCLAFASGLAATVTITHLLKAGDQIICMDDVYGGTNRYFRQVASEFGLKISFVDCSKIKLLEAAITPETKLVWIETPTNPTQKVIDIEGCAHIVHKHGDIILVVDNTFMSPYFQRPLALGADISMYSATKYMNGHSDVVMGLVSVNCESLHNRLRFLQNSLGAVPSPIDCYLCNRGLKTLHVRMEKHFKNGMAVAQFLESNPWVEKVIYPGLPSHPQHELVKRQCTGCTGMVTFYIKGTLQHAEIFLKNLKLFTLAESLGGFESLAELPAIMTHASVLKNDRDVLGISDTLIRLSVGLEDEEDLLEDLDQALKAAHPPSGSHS

[2] = biological target: T1, Cystathionine gamma-lyase; assay: Inhibition of human CSE expressed in mouse RAW264.7 cells assessed as reduction in amount of released H2S level at >=200 uM by lead acetate method; assay type: cell-based; conditions: dose microM >=200
[3] = biological target: Cystathionine gamma-lyase (Mus musculus, UniProt Q8VCN5); assay: (§1) Inhibition of CSE in mouse RAW264.7 cells assessed as reduction in endogenous H2S level by AzMC probe based fluorescence assay; assay type: cell-based
Sequence of Cystathionine gamma-lyase (Mus musculus, UniProt Q8VCN5) (Q8VCN5 whole entry): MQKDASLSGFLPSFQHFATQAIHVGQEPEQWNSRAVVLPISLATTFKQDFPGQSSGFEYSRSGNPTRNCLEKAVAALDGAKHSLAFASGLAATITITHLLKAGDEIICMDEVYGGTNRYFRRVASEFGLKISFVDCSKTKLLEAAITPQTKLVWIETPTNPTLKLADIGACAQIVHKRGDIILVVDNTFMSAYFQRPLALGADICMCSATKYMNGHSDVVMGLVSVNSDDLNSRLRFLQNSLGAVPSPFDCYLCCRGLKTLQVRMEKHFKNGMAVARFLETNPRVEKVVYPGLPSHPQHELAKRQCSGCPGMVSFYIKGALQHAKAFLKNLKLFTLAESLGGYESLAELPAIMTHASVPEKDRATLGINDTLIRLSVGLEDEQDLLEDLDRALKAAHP

[4] = biological target: Cystathionine gamma-lyase (Mus musculus) (UniProt Q8VCN5); assay: Inhibition of CSE in mouse RAW264.7 cells assessed as reduction in amount of released H2S level at >= 200 uM by lead acetate method; assay type: cell-based; conditions: dose microM >=200
Sequence of Cystathionine gamma-lyase (Mus musculus) (Q8VCN5 whole entry): as above

Homo sapiens [5] = species on record: Homo sapiens; assay: Selectivity index, ratio of IC50 for human CSE Y114A mutant to IC50 for wild type human CSE
Homo sapiens [6] = species on record: Homo sapiens; assay: Selectivity index, ratio of IC50 for human CBS to IC50 for human DDC
[7] = biological target: T1, Cystathionine gamma-lyase; assay: Binding affinity to human CSE by ITC analysis
[8] = biological target: T2, Cystathionine beta-synthase (Homo sapiens, UniProt P35520); assay: Inhibition of CBS (unknown origin) by AzMC based fluorescence assay
T2 sequence (P35520 whole entry): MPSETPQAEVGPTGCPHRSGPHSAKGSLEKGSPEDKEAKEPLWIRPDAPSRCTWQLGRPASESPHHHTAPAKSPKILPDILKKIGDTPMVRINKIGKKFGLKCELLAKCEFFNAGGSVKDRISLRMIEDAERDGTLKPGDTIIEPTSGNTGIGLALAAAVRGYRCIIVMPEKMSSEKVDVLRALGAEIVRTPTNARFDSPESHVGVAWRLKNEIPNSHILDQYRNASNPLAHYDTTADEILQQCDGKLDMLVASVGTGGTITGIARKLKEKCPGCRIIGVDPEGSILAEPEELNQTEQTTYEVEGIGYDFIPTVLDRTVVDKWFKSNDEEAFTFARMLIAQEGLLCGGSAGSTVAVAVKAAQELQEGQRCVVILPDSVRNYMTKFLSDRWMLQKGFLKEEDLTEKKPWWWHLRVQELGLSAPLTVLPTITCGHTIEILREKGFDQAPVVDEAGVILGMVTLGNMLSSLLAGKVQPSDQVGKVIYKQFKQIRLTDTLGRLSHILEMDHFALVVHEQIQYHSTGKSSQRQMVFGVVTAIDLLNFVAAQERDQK

[9] = biological target: T1, Cystathionine gamma-lyase; assay: Inhibition of human CSE expressed in HEK293T cells assessed as reduction in H2S contents at 20 to 50 uM by lead acetate assay; assay type: cell-based; conditions: dose 20-50 µM
Rattus norvegicus [10] = assay: Reversal of hypotension in Sprague-Dawley rat model of hemorrhagic shock assessed as mean artery pressure level at 50 mg/kg, ip after 45 mins (reference value: 35.8 mmHg); assay type: functional; conditions: 0.75 h
Homo sapiens [11] = species on record: Homo sapiens; assay: Selectivity index, ratio of IC50 for human CSE R62A mutant to IC50 for wild type human CSE
Homo sapiens [12] = species on record: Homo sapiens; assay: Selectivity index, ratio of IC50 for human CSE R119A mutant to IC50 for wild type human CSE
Homo sapiens [13] = species on record: Homo sapiens; assay: Selectivity index, ratio of IC50 for human CSE R119K mutant to IC50 for wild type human CSE
[14] = Binding affinity to H2S assessed as absorbing of released H2S up to 100 uM in presence of NaHS as H2S donor; conditions: dose microM <=100
[15] = biological target: Cystathionine gamma-lyase (Homo sapiens, UniProt P32929, R119K); assay: Inhibition of human CSE R119K mutant expressed in HEK293T cells assessed as reduction in H2S contents; assay type: cell-based
Sequence of Cystathionine gamma-lyase (Homo sapiens, UniProt P32929, R119K) (P32929 whole entry R119K): as the sequence (P32929 whole entry) above, with R119K counted along it

Homo sapiens [16] = species on record: Homo sapiens; assay: Selectivity index, ratio of Ki for human CSE R119A mutant to Ki for wild type human CSE
HEK-293T = assay: Toxicity in HEK293T cells assessed as cell viability up to 100 uM incubated for 12 to 24 hrs by CellTiter96 aqueous one solution cell proliferation assay; assay type: cell-based; conditions: human, time 12-24 hrs
RAW264.7 = assay: Toxicity in mouse RAW264.7 cells assessed as cell viability up to 100 uM incubated for 12 to 24 hrs by CellTiter96 aqueous one solution cell proliferation assay; assay type: cell-based; conditions: time 12-24 hrs
Homo sapiens [17] = species on record: Homo sapiens; assay: Selectivity index, ratio of IC50 for human CSE Y114F mutant expressed in HEK293T cells to IC50 for wild type human CSE expressed in HEK293T cells; assay type: cell-based
Homo sapiens [18] = species on record: Homo sapiens; assay: Selectivity index, ratio of Ki for human CSE R119K mutant to Ki for wild type human CSE
[19] = biological target: T2, Cystathionine beta-synthase; assay: Inhibition of wild type human CBS expressed in HEK293T cells assessed as reduction in H2S contents; assay type: cell-based
[20] = biological target: T2, Cystathionine beta-synthase; assay: Inhibition of human CBS by methylene blue method
Rattus norvegicus [21] = assay: Inhibition of CSE in Sprague-Dawley rat model of hemorrhagic shock assessed as reduction in plasma H2S level at 50 mg/kg, ip after 45 mins by methylene blue dye based method; assay type: functional, organism-based
Homo sapiens [22] = species on record: Homo sapiens; assay: Selectivity index, ratio of IC50 for human CBS to IC50 for human CSE
Homo sapiens [23] = species on record: Homo sapiens; assay: Selectivity index, ratio of Ki for human CSE Y114F mutant to Ki for wild type human CSE
[24] = biological target: T1, Cystathionine gamma-lyase; assay: Inhibition of human CSE using L-Cys as the substrate in presence of 0.01% Triton X-100 by tandem well based HTS assay
[25] = biological target: T2, Cystathionine beta-synthase; assay: Inhibition of CBS (unknown origin) by methylene blue method
Homo sapiens [26] = species on record: Homo sapiens; assay: Selectivity index, ratio of IC50 for human CSE R119K mutant expressed in HEK293T cells to IC50 for wild type human CSE expressed in HEK293T cells; assay type: cell-based
[27] = biological target: Cystathionine gamma-lyase (Mus musculus) (UniProt Q8VCN5); assay: Inhibition of CSE in mouse RAW264.7 cells assessed as increase in levels of cellular H-cys level at 1 to 500 uM by ELISA; assay type: cell-based; conditions: dose 1-500 µM
[28] = biological target: T1, Cystathionine gamma-lyase; assay: Inhibition of human CSE expressed in mouse RAW264.7 cells assessed as reduction in amount of released H2S level at 20 to 50 uM by lead acetate method; assay type: cell-based; conditions: dose 20-50 µM
[29] = biological target: Cystathionine gamma-lyase (Mus musculus) (UniProt Q8VCN5); assay: Inhibition of CSE in mouse RAW264.7 cells assessed as reduction in amount of released H2S level at 20 to 50 uM by lead acetate method; assay type: cell-based; conditions: dose 20-50 µM
[30] = test system: Cystathionine gamma-lyase (Homo sapiens), P32929 [R119A]; assay: Inhibition of human CSE R119A mutant expressed in HEK293T cells assessed as reduction in H2S contents at 200 to 500 uM by lead acetate assay; assay type: cell-based; conditions: dose 200-500 µM
Sequence of Cystathionine gamma-lyase (Homo sapiens), P32929 [R119A] (P32929 whole entry R119A): as the sequence (P32929 whole entry) above, with R119A counted along it

[31] = biological target: Cystathionine gamma-lyase (Homo sapiens, UniProt P32929, Y114F); assay: Inhibition of human CSE Y114F mutant expressed in HEK293T cells assessed as reduction in H2S contents; assay type: cell-based
Sequence of Cystathionine gamma-lyase (Homo sapiens, UniProt P32929, Y114F) (P32929 whole entry Y114F): as the sequence (P32929 whole entry) above, with Y114F counted along it

[32] = biological target: T1, Cystathionine gamma-lyase; assay: Inhibition of wild type human CSE expressed in HEK293T cells assessed as reduction in H2S contents; assay type: cell-based
[33] = test system: Cystathionine gamma-lyase (Homo sapiens), P32929 [R119K]; assay: Inhibition of human CSE R119K mutant expressed in HEK293T cells assessed as reduction in H2S contents at 200 to 500 uM by lead acetate assay; assay type: cell-based; conditions: dose 200-500 µM
Sequence of Cystathionine gamma-lyase (Homo sapiens), P32929 [R119K] (P32929 whole entry R119K): as the sequence (P32929 whole entry) above, with R119K counted along it

[34] = biological target: T1, Cystathionine gamma-lyase; assay: Inhibition of human CSE using L-Cys as the substrate in presence of 0.025% Triton X-100 by tandem well based HTS assay
Rattus norvegicus [35] = assay: Inhibition of CSE in Sprague-Dawley rat model of hemorrhagic shock assessed as increase in plasma H-cys level at 50 mg/kg, ip after 45 mins by ELISA; assay type: functional, organism-based
[36] = biological target: T1, Cystathionine gamma-lyase; assay: Inhibition of human CSE by methylene blue method
[37] = biological target: Cystathionine gamma-lyase (Mus musculus) (UniProt Q8VCN5); assay: Potency index, ratio of inhibition activity of PAG to test compound for inhibition of CSE in mouse RAW264.7 cells assessed as reduction in amount of released H2S level by lead acetate method; assay type: cell-based
[38] = biological target: Cystathionine gamma-lyase (Mus musculus) (UniProt Q8VCN5); assay: as §1; assay type: cell-based
Homo sapiens [39] = species on record: Homo sapiens; assay: Selectivity index, ratio of IC50 for human CSE Y114F mutant to IC50 for wild type human CSE
[40] = test system: Cystathionine gamma-lyase (Homo sapiens), P32929 [Y114F]; assay: Inhibition of human CSE Y114F mutant expressed in HEK293T cells assessed as reduction in H2S contents at 200 to 500 uM by lead acetate assay; assay type: cell-based; conditions: dose 200-500 µM
Sequence of Cystathionine gamma-lyase (Homo sapiens), P32929 [Y114F] (P32929 whole entry Y114F): as the sequence (P32929 whole entry) above, with Y114F counted along it

[41] = biological target: T1, Cystathionine gamma-lyase; assay: Effect on PLP interaction with human CSE assessed as effect on spectra of CSE-bound PLP
[42] = biological target: T1, Cystathionine gamma-lyase; assay: Non-covalent reversible inhibition of human CSE
[43] = biological target: T1, Cystathionine gamma-lyase; assay: Competitive inhibition of human CSE using varying levels of L-Cys as substrate and fixed PLP levels
[44] = biological target: T1, Cystathionine gamma-lyase; assay: Inhibition of human CSE using H-Cys as the substrate by LC/MS/MS-based assay
Homo sapiens [45] = species on record: Homo sapiens; assay: Selectivity index, ratio of IC50 for human CSE R119A mutant expressed in HEK293T cells to IC50 for wild type human CSE expressed in HEK293T cells; assay type: cell-based
[46] = biological target: T1, Cystathionine gamma-lyase; assay: Inhibition of human CSE using H-Cys as the substrate by tandem well based HTS assay
[47] = biological target: Cystathionine gamma-lyase (Homo sapiens, UniProt P32929, R119A); assay: Inhibition of human CSE R119A mutant expressed in HEK293T cells assessed as reduction in H2S contents; assay type: cell-based
Sequence of Cystathionine gamma-lyase (Homo sapiens, UniProt P32929, R119A) (P32929 whole entry R119A): as the sequence (P32929 whole entry) above, with R119A counted along it

[48] = biological target: T1, Cystathionine gamma-lyase; assay: Non-competitive inhibition of human CSE using varying levels of PLP and fixed L-Cys as substrate
[49] = Binding affinity to H2S assessed as absorbing of released H2S at 200 uM in presence of NaHS as H2S donor

SMILES: O=C(O)C1=CC(=C(c2ccc(O)c(C(=O)O)c2)c2ccc(O)c(C(=O)O)c2)C=CC1=O [AURINTRICARBOXYLIC ACID]
Ratio IC50 (Homo sapiens [5]): > 10 | Ratio IC50 (Homo sapiens [6]): 143 | Kd [7]: 3.4 µM | IC50 [8]: 3 µM | inhibition [9]: Active | Activity (Rattus norvegicus [10]): 65 mmHg | Ratio IC50 (Homo sapiens [11]): > 10 | Ratio IC50 (Homo sapiens [12]): 32 | Ratio IC50 (Homo sapiens [13]): 26 | Activity [14]: inactive | IC50 [15]: 245 µM | Ratio Ki (Homo sapiens [16]): 52 | Activity (HEK-293T): Non-Toxic | Activity (RAW264.7): Non-Toxic | Ratio IC50 (Homo sapiens [17]): 6 | Ratio Ki (Homo sapiens [18]): 40.5 | IC50 [19]: > 650 µM | IC50 [20]: 54.2 µM | inhibition (Rattus norvegicus [21]): Active | Ratio IC50 (Homo sapiens [22]): 137 | Ratio Ki (Homo sapiens [23]): 44.5 | IC50 [24]: 1.8 µM | IC50 [25]: 20 µM | Ratio IC50 (Homo sapiens [26]): 6 | inhibition [27]: Active | inhibition [28]: Active | inhibition [29]: Active | inhibition [30]: inactive | IC50 [1]: 0.6 µM | IC50 [31]: 283 µM | IC50 [32]: 34.7 µM | inhibition [32]: Dose-dependent effect | inhibition [33]: inactive | IC50 [34]: 1.8 µM | inhibition (Rattus norvegicus [35]): Active | IC50 [36]: 2.6 µM | Ratio [37]: 8 | inhibition [38]: Dose-dependent effect | IC50 [3]: 43.2 µM | Ratio IC50 (Homo sapiens [39]): 29.6 | inhibition [40]: inactive | Activity [41]: inactive | inhibition [42]: Active | Ki [43]: 0.6 µM | IC50 [44]: 3.3 µM | inhibition [44]: Dose-dependent effect | Ratio IC50 (Homo sapiens [45]): 6 | IC50 [46]: 1.7 µM | IC50 [47]: 371 µM | alphaKi [48]: 4.2 µM

SMILES: O=[N+]([O-])c1ccc(O)c2ncccc12 [NITROXOLINE]
Ratio IC50 (Homo sapiens [6]): 12 | Activity [49]: 35% | Activity [14]: inactive | Ratio IC50 (Homo sapiens [22]): 62 | inhibition [24]: Active | IC50 [1]: 8 µM | inhibition [34]: Active | IC50 [44]: 6 µM | IC50 [46]: 10.7 µM

SMILES: O=C(O)c1cc(/N=N/c2ccc(O)c(C(=O)O)c2)ccc1O [OLSALAZINE]
IC50 [1]: > 200 µM

SMILES: O=C(O)c1ccccc1O [SALICYLIC ACID]
IC50 [1]: > 200 µM

Next, values leading:

IC50 [1]: < 50 µM
SMILES: NC1=CC(=O)c2cccnc2C1=O

inhibition [2]: Active | IC50 [3]: 371 µM | inhibition [4]: Active
SMILES: C#CCC(N)C(=O)O (racemic)

IC50 [1]: > 200 µM
SMILES: Nc1ccc(O)c(C(=O)O)c1 [MESALAMINE]
